Common to all, as to assay: inhibition of tumour cell growth, NCI panel, 48 h
Assay [1] deals with SK-MEL-2 melanoma.
Assay [2] deals with HCT-15 colon.
Assay [3] has as its system TK-10 renal.
Assay [4] deals with SW-620 colon.
The test system of assay [5] is T-47D breast.
Assay [6] has as its system DU-145 prostate.
In assay [7] the test system is CAKI-1 renal.
For assay [8], the system named is HCT-116 colon.
Assay [9] deals with NCI-H23 lung.
For assay [10], the system named is SNB-75 CNS.

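Briefly, cells in 96-well plates were exposed to five compound concentrations for 48 h, and endpoints were estimated by linear interpolation. TGI is the concentration that stops growth completely.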

For the compound `COC(=O)C1=C(OC(=O)/C(=C/c2ccc(Cl)cc2)c2ccccc2)C(C(=O)OC)[C@@]2(O)[C@@H](C(=O)OC)[C@H](C)C[C@@H]1[C@@H]2C(=O)OC` (stereo not given in full), the TGI in assay [1], in assay [2], in assay [3], in assay [4], in [5] and in assay [6] was more than 100 µM in each case. Moreover, the TGI in assay [7], in [8], in [9] and in assay [10] was more than 100 µM each time.
Regarding `N#CSCC1COc2ccccc2O1` (stereo not given), the TGI in [1], in [2], in assay [3], in [4], in assay [5] and in assay [6] was more than 10 µM in each case. In addition, the TGI in assay [7], in [8], in assay [9] and in assay [10] was more than 10 µM throughout.
As to `O=C(CCc1cc(O)cc(O)c1)NCCc1ccc(O)c(O)c1`, the TGI in assay [1], in assay [2], in assay [3], in [4], in assay [5] and in assay [6] was more than 100 µM each time. Besides, the TGI in assay [7], in assay [8], in [9] and in [10] was more than 100 µM throughout.
Regarding `CCCCNC(=S)/N=C/c1c(O)c2ccccc2oc1=O`, the TGI in assay [1], in [2], in [3], in [4], in [5] and in assay [6] was more than 100 µM in each case. Moreover, the TGI in assay [7], in assay [8], in [9] and in assay [10] was more than 100 µM each time.
`O=C1CCC2=C(CCC2)N1CCc1ccc2c(c1)OCO2`: the TGI in [1], in assay [2], in assay [3], in assay [4], in [5] and in [6] was more than 100 µM each time. The TGI in [7], in assay [8], in assay [9] and in assay [10] was more than 100 µM throughout.
Regarding `O=C(c1ccc(Cl)cc1)N1N=C(c2ccc(Cl)cc2)CC1(O)c1cc(F)c(Cl)cc1Cl` (stereo not given), the TGI in [1] is 39 µM; in assay [2] it was more than 100 µM; in assay [3], more than 100 µM; in assay [4] it was more than 100 µM; in assay [5], more than 100 µM; in assay [6] it was more than 100 µM. The TGI in assay [7] was found to be 39.6 µM; in assay [8] it was 26.4 µM; in assay [9], 73 µM; in assay [10], 44.5 µM.
In the case of `O=C(NN=C1CCCCC1)Nc1ccccc1Cl`, the TGI was 91.7 µM in assay [1]; more than 100 µM in [2]; more than 100 µM in assay [3]; more than 100 µM in [4]; more than 100 µM in assay [5]; more than 100 µM in assay [6]. Besides, the TGI in [7] was more than 100 µM; in assay [8] it was more than 100 µM; in assay [9] it was more than 100 µM; in [10] it was 29.6 µM.
`C1OCN2c3nonc3N3COCN4c5nonc5N1C2C43` (stereo not given): the TGI in assay [1], in assay [2], in assay [3], in [4], in [5] and in [6] was more than 100 µM each time. Further, the TGI in assay [7], in assay [8], in assay [9] and in [10] was more than 100 µM in each case.
Take `CCOC(=O)/C=C(/C(=O)OCC)n1c(=O)c(C)cn(C2CC(N=[N+]=[N-])C(CO)O2)c1=O` (stereo not given): the TGI in [1] was 72 µM; in assay [2], more than 100 µM; in assay [3], more than 100 µM; in [4] it was 34.1 µM; in [5] it was more than 100 µM; in assay [6], more than 100 µM. Further, the TGI in assay [7] was 83.9 µM; in assay [8], more than 100 µM; in assay [9], more than 100 µM; in [10] it was more than 100 µM.
As to `CN(C)CCCNC(=O)c1cc(NC(=O)c2cc(NC(=O)c3cc(NC(=O)CCCn4ccc(CO)c4CO)cn3C)cn2C)cn1C`, the TGI was 77 µM in assay [1]; more than 100 µM in assay [2]; 72.4 µM in assay [3]; more than 100 µM in assay [4]; more than 100 µM in [5]; more than 100 µM in assay [6]. Besides, the TGI in [7] was more than 100 µM; in assay [8] it was more than 100 µM; in assay [9] it was more than 100 µM; in [10], 44.4 µM.
With `CCCCCC(/C=C/[C@@H]1CC(=O)C[C@H]1O[Si](C)(C)C(C)(C)C)OCOCCOC` (stereo not given in full), the TGI is 12.6 µM in [1]; 15.2 µM in assay [2]; 26.3 µM in assay [3]; more than 28.1 µM in [4]; 44 µM in assay [5]; 32.8 µM in assay [6]. For the same compound, the TGI was 7.87 µM in [7], 13.5 µM in assay [8], 12.9 µM in [9] and 11.5 µM in assay [10].
With `Cc1ccc([N+](=O)[O-])cc1S(=O)(=O)Nc1ccc(C2=NN(c3ccc([N+](=O)[O-])cc3[N+](=O)[O-])C(c3ccccc3O)C2)cc1` (stereo not given), the TGI in [1] was 59.4 µM; in assay [2] it was more than 100 µM; in assay [3], more than 100 µM; in assay [4], more than 100 µM; in assay [5] it was more than 100 µM; in [6], more than 100 µM. Moreover, the TGI in assay [7] was more than 100 µM; in [8] it was more than 100 µM; in assay [9] it was 59.7 µM; in assay [10], more than 100 µM.
Turning to `N#CC1N(C(=O)c2ccc(F)cc2)c2ccccc2N1C(=O)c1ccc(F)cc1`, the TGI in assay [1], in assay [2], in assay [3], in assay [4], in [5] and in [6] was more than 100 µM in each case. Moreover, the TGI in assay [7], in assay [8], in [9] and in [10] was more than 100 µM each time.
As to `COc1ccc(N2CCN(c3ccc4c(c3)NCC(=O)N4)CC2)cc1`, the TGI in assay [1] was 69.6 µM; in assay [2] it was more than 100 µM; in [3] it was more than 100 µM; in [4], more than 100 µM; in assay [5] it was 33.4 µM; in [6] it was more than 100 µM. In addition, the TGI was more than 100 µM in [7], more than 100 µM in assay [8], more than 100 µM in [9] and 93.8 µM in [10].
Take `Cc1ccc(O)c(Cc2nc3ccccc3nc2-c2cccc(Br)c2)c1`: the TGI is more than 100 µM in assay [1]; 66.9 µM in assay [2]; more than 100 µM in assay [3]; more than 100 µM in [4]; more than 100 µM in assay [5]; more than 100 µM in assay [6]. For the same compound, the TGI in [7], in assay [8], in assay [9] and in [10] was more than 100 µM in each case.

The record behind these values is PubChem BioAssay (NCI).
